Assay results as given in patent publication US20070173522A1, “4-(2-Phenylsulfanyl-phenyl)-1,2,3,6- tetrahydropyridine derivatives as serotonin reuptake inhibitors” (priority 2003, published 2007).

Assays:
[1] = target: T1, serotonin reuptake (5-HT uptake into rat cortical synaptosomes) (Rattus norvegicus, UniProt P31652); test: Measurements of [3H]-5-HT uptake into rat cortical synaptosomes; format: biochemical; settings: result in words; test described in the examples section
T1 construct: Whole brains from male Wistar rats (125-225 g), excluding cerebellum, are homogenized; from tissue; host or cells: synaptosomal preparation from whole brain (excluding cerebellum) of male Wistar rats
T1 sequence (P31652 whole entry): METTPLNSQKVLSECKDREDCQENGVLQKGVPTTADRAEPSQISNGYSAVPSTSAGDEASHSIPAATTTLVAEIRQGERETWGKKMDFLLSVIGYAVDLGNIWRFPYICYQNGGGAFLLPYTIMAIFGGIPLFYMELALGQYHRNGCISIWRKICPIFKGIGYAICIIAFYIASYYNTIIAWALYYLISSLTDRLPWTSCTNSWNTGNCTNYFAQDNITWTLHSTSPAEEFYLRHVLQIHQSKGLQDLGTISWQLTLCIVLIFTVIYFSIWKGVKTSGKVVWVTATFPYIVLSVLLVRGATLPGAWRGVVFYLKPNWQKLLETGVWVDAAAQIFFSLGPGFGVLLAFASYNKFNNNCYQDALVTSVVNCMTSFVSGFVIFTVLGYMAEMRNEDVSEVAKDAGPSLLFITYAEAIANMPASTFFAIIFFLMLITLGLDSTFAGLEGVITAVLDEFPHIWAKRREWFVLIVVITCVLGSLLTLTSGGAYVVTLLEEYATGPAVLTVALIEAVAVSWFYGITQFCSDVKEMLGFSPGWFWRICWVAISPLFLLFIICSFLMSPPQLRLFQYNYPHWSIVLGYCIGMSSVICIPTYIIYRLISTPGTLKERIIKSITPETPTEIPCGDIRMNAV
Method: Measurements of [^3]-5-HT Uptake into Rat Cortical Synaptosomes.
Whole brains from male Wistar rats (125-225 g), excluding cerebellum, are homogenized in 0.32 M sucrose supplemented with 1 mM nialamid with a glass/teflon homogenizer. The homogenate is centrifuged at 600×g for 10 mil at 4° C. The pellet is discarded and the supernatant is centrifuged at 20.000×g for 55 min. The final pellet is homogenized (20 sec) in this assay buffer (0.5 mg original tissue/well). Test compounds (or buffer) and 10 nM [^3H]-5-HT are added to 96 well plates and shaken briefly. Composition of assay buffer: 123 mM NaCl, 4.82 mM KCl, 0.973 mM CaCl2, 1.12 mM MgSO4, 12.66 mM Na2HPO4, 2.97 mM NaH2PO4, 0.162 mM EDTA, 10 mM glucose and 1 mM ascorbic acid. Buffer is oxygenated with 95% O2/5% CO2 for 10 min at 37° C. and pH is adjusted 7.4. The incubation is started by adding tissue to a final assay volume of 0.2 mL. After 15 min incubation with radioligand at 37° C., samples are filtered directly on Unifilter GF/C glass fiber filters (soaked for 1 hour in 0.1% polyethylenimine) under vacuum and immediately washed with 3×0.2 ml assay buffer. Non-specific uptake is determined using citalopram (10 μM final concentration). Citalopram is included as reference in all experiments as dose-response curve.

[2] = target: T2, norepinephrine uptake (noradrenaline uptake into rat cortical synaptosomes) (Rattus norvegicus, UniProt Q63380); test: Measurements of [3H]noradrenaline uptake into rat cortical synaptosomes; format: biochemical; settings: result in words; test described in the examples section
T2 construct: Fresh cortex from male Wistar rats (125-225 g) are homogenized in 0.4M sucrose; from tissue; host or cells: synaptosomal preparation from fresh cortex of male Wistar rats
T2 sequence (Q63380 1-617): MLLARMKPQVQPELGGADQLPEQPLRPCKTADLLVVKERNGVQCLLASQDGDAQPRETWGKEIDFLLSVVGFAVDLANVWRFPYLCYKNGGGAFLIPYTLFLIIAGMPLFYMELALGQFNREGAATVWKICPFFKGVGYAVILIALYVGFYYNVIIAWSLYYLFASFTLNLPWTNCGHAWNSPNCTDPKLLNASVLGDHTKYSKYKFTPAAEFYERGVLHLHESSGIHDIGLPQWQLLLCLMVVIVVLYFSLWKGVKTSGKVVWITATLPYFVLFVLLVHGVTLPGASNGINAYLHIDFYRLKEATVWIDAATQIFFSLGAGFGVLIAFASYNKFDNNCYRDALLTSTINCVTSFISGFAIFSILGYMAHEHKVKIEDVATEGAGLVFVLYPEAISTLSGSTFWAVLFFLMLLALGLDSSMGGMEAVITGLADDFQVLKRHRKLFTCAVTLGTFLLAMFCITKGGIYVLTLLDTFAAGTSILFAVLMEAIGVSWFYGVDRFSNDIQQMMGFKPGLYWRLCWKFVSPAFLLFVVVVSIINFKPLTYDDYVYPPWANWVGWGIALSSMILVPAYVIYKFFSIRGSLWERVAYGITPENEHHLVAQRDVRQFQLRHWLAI
Method: Measurements of ^3H]Noradrenaline Uptake into Rat Cortical Synaptosomes.
Fresh cortex from male Wistar rats (125-225 g) are homogenized in 0.4M sucrose with a glass/teflon homogenizer. The homogenate is centrifuged at 600×g for 10 min at 4° C. The pellet is discarded and the supernatant is centrifuged at 20.000×g for 55 min. The final pellet is homogenized (20 sec) in this assay buffer (6 mg original tissue/mL=4 mg/well). Test compounds (or buffer) and 10 nM [^3H]-noradrenaline are added to deep 96 well plates and shaken briefly. Composition of assay buffer: 123 mM NaCl, 4.82 mM KCl, 0.973 mM CaCl2, 1.12 mM MgSO4, 12.66 mM Na2HPO4, 2.97 mM NaH2PO4, 0.162 mM EDTA, 10 mM glucose and 1 mM ascorbic acid. Buffer is oxygenated with 95% O2/5% CO2 for 10 min at 37° C. and pH is adjusted 7.4. The incubation is started by adding tissue to a final assay volume of 1 ml. After 15 min incubation with radioligand at 37° C., samples are filtered directly on Unifilter GF/C glass fiber filters (soaked for 1 hour in 0.1% polyethylenimine) under vacuum and immediately washed with 3×1 mL assay buffer. Non-specific uptake is determined using talsupram (10 μM final concentration). Duloxetine is included as reference in all experiments as dose-response curve.

Row | SMILES | serotonin reuptake inhibition [1] | norepinephrine uptake inhibition [2]
1 | COc1ccc(Sc2ccc(C)cc2C2=CCNCC2)c(F)c1 [Compound 61, 4-[2-(2-Fluoro-4-methoxy-phenylsulfanyl)-5-methyl-phenyl]-1,2,3,6-tetrahydro-pyridine] | did show serotonin reuptake inhibition | did not show norepinephrine uptake inhibition
2 | Cc1cccc(Sc2ccccc2C2=CCNCC2)c1C [Compound 33, 4-[2-(2,3-Dimethyl-phenylsulfanyl)-phenyl]-1,2,3,6-tetrahydro-pyridine] | did show serotonin reuptake inhibition | did not show norepinephrine uptake inhibition
3 | Cc1ccc(Sc2ccccc2C2=CCNCC2)c(Cl)c1 [Compound 84, 4-[2-(2-Chloro-4-methyl-phenylsulfanyl)-phenyl]-1,2,3,6-tetrahydro-pyridine] | did show serotonin reuptake inhibition | did not show norepinephrine uptake inhibition
4 | Fc1cccc(Sc2ccccc2C2=CCNCC2)c1F [Compound 83, 4-[2-(2,3-Difluoro-phenylsulfanyl)-phenyl]-1,2,3,6-tetrahydro-pyridine] | did show serotonin reuptake inhibition | did not show norepinephrine uptake inhibition
5 | COc1ccc(Sc2ccccc2C2=CCNCC2)c(C)c1 [Compound 37, 4-[2-(4-Methoxy-2-methyl-phenylsulfanyl)-phenyl]-1,2,3,6-tetrahydro-pyridine] | did show serotonin reuptake inhibition | did not show norepinephrine uptake inhibition
6 | Cc1ccc(Sc2cccc(F)c2C)c(C2=CCNCC2)c1 [Compound 89, 4-[2-(3-Fluoro-2-methyl-phenylsulfanyl)-5-methyl-phenyl]-1,2,3,6-tetrahydro-pyridine] | did show serotonin reuptake inhibition | did not show norepinephrine uptake inhibition
7 | Cc1c(F)cccc1Sc1ccccc1C1=CCNCC1 [Compound 87, 4-[2-(3-Fluoro-2-methyl-phenylsulfanyl)-phenyl]-1,2,3,6-tetrahydro-pyridine] | did show serotonin reuptake inhibition | did not show norepinephrine uptake inhibition
8 | Cc1ccc(Sc2cccc(Cl)c2F)c(C2=CCNCC2)c1 [Compound 86] | did show serotonin reuptake inhibition | did not show norepinephrine uptake inhibition
9 | Cc1ccc(Sc2ccc(C)c(F)c2)c(C2=CCNCC2)c1 [Compound 128, 4-[2-(3-Fluoro-4-methyl-phenylsulfanyl)-5-methyl-phenyl]-1,2,3,6-tetrahydro-pyridine] | did show serotonin reuptake inhibition | did not show norepinephrine uptake inhibition
10 | Cc1ccc(Sc2ccc(C)cc2C2=CCNCC2)c(F)c1 [Compound 52, 4-[2-(2-Fluoro-4-methyl-phenylsulfanyl)-5-methyl-phenyl]-1,2,3,6-tetrahydro-pyridine] | did show serotonin reuptake inhibition | did not show norepinephrine uptake inhibition
